The results in this text go back to patent US20240269220A1, “USES OF BLETILLA FORMOSANA EXTRACT FOR THE TREATMENT OF DISEASES ASSOCIATED WITH DYSREGULATED ACTIVATION OF NEUTROPHILS” (Chang Gung University, priority 2022, published 2024).

Where only a bound is given, the exact number is not on record here.

In experiment [1] the test system is fMLF/CB-activated human neutrophils. Kind of experiment: Extracellular superoxide anion production (ferricytochrome c reduction) in fMLF/CB-activated human neutrophils. The format is cell-based. The conditions noted are these: Neutrophil, chemical components of the extract, read-out: Superoxide anions IC50. The protocol: (§1) The study was conducted with the approval of the Institutional Review Board of Chang Gung Memorial Hospital in accordance with the Declaration of Helsinki. After written informed consent was obtained, whole blood samples were drawn from healthy individuals aged 20-30 years who had not taken any medication within the previous 5 weeks. Neutrophils were then isolated using the standard procedures for dextran sedimentation, Ficoll-Hypaque gradient centrifugation, and hypotonic lysis of erythrocytes. The isolated neutrophils were then suspended in Ca^2+-free HBSS (pH 7.4) and stored at 4° C. until use.
Extracellular superoxide anion production in activated neutrophils was assessed through the reduction of ferricytochrome c. After incubating them with Ca^2+(1 mM) and ferricytochrome c (0.6 mg/mL) at 37° C., the isolated human neutrophils (6×10^5 cells/mL) were then incubated with DMSO or the present B. formosana extract for 5 min. The cells were pretreated with cytochalasin B (CB, 1 or 2 μg/mL) for 3 min and stimulated with fMLF. The change in absorbance at 550 nm was detected continuously using a spectrophotometer (U-3010, Hitachi, Tokyo, Japan), and superoxide anion levels were calculated using a method described previously (Hwang et al., 2003 Mol. Pharmacol. 64(6), 1419-1427).

Experiment [2] has the same test system. In words: Neutrophil elastase release in fMLF/CB-activated human neutrophils. The format is cell-based. The conditions noted are these: chemical components of the extract. The protocol: as §1
Human neutrophils (6×10^5 cells/mL) were incubated with DMSO or the present B. formosana extract after treatment with 1 mM CaCl2 and 100 μM NE substrate (Methoxysuccinyl-Ala-Ala-Pro-Val-p-nitroanilide) at 37° C. for 5 min. Cells were stimulated with fMLF (0.1 μM)/cytochalasin B (CB) (0.5 μg/mL) for 10 min before determination of NE release by measuring the change of absorbance at 405 nm in a spectrophotometer.

Take `COc1cccc(CCc2cc(O)cc(OC)c2)c1` [BF8-4-2, 3′,5-dimethoxy-3-hydroxybibenzyl]: the IC50 is 4.63 ± 0.54 µM in experiment [1] and above 10 µM in experiment [2].
Taken in the same sequence, the figures for `COc1cc(CCc2cccc(O)c2)cc(OC)c1` [BF8-4-3, 3,5-dimethoxy-3′-hydroxybibenzyl] were 4.64 ± 0.23 µM and 7.41 ± 0.5 µM.
Taken in the same sequence, the figures for `COc1cc(O)cc(CCc2ccccc2)c1` [BF8-4-4, 3-hydroxy-5-methoxybibenzyl] were 1.86 ± 0.21 µM and 2.71 ± 0.16 µM.
Taken in the same sequence, the figures for `COc1cc(O)cc(CCc2cccc(O)c2)c1` [Batatasin III, 3,3′-dihydroxy-5-methoxybibenzyl] were 4.3 ± 0.5 µM and above 10 µM.
Take `COc1cc(O)c(Cc2ccc(O)cc2)c2c1-c1ccc(O)cc1CC2` [Orchidble, 9,10-dihydro-1-[(4-hydroxyphenyl)methyl]-4-methoxy-2,7-phenanthrenediol]: the results for the IC50 in experiment [1] and in experiment [2] were 0.66 ± 0.12 µM and 6.26 ± 1.19 µM, respectively.

What is called IC50 is the concentration at which inhibition is half-maximal.
